In patent US20070225245A1, “Viral vector driven mutant bacterial cytosine deaminase gene and uses thereof” (priority 1998, published 2007):

Assays:
[1] = tested on: Intracranial U87MG Human Gliomas; test: Survival, intracranial glioma, intratumoral Ad and systemic 5-FC; type: in vivo, SCID mice; conditions: for Survival 20% / Survival Median: Saline (no virus) + 5-FC
Description: U87MG and D54MG cells (5×10^5) were stereotactically injected into the right frontal cortex of SCID mice. Tumors were established for 5 days before intratumoral injection of AdCMVCD (10^8 or 10^9 pfu/mouse). Mice were then treated IP with 5-FC (500 mg/kg bid) on days 2-9 post infection and monitored for survival. Kaplan-Meier survival curves and median and 20% survival values were calculated by standard methods.
U87MG cells (5×10^5), the stringent glioma model, were stereotactically injected into the right frontal cortex of SCID mice. Tumors were established for 5 days before intratumoral injection of AdE1ACD or AdCMVCD (10^8 or 10^9 pfu/mouse). Mice were then treated IP with 5-FC (500 mg/kg bid) on days 2-9 post infection and monitored for survival. Kaplan-Meier survival curves and median and 20% survival values were calculated by standard methods.

[2] = tested on: Intracranial U87MG gliomas; test: Survival, intracranial glioma, HSV and 5-FC; type: in vivo, SCID mice; conditions: saline plus 5-FC
Description: Two days later, mice were begun on twice daily intraperitoneal injections of saline (1 ml) or 5-FC (500 mg/kg). Mice were followed for survival.
Studies were undertaken to determine the efficacy of the HSV construct, M012, in in vivo murine glioma models. […] The median survival of animals receiving saline plus 5-FC was 34 days. In a similar study with the D54MG intracranial model, median survival of mice injected intratumorally with M012 and administered 5-FC was 40 days, compared to 27 days with M012 plus saline and 19 days with saline and 5-FC (FIG. 14).

Structure (SMILES): Nc1nc(=O)[nH]cc1F [5-FC, 5-fluorocytosine]
- Survival 20% ([1]; Table 6): 61
- Survival Median ([1]; Table 6): 50
- Survival 20% ([1]; Table 8): 34
- Survival Median ([1]; Table 8): 34
- Survival 20% ([1]; Table 11): 60
- Survival Median ([1]; Table 11): 57
- median survival ([1]; U87MG, no virus/5-FC): 57 days
- median survival [2]: 34 days
